# Measurements from US20220389061A1, “IMMUNOMODULATORS” (priority 2019, published 2022).
# Where two headings read alike, the source gives them in different places. Starred links: 1 amine or outer side, 2 acyl side, 3 side chain; linkers in the order of their positions; H or OH if unused. Positions of bridges follow the written chain, without caps; N, C: chain ends. Non-standard residues stand in square brackets, D forms with d. Residues, ends and D or L forms follow the SMILES beside them. Groups on a side chain read outwards from the residue. *: point of attachment. Trp(1-CH2COOH) = N[C@@H](Cc1cn(CC(=O)O)c2ccccc12)C(=O)O; X8 = NC(=O)c1c[nH]c2c(NC(=S)*)cccc12; NH(1-naphthyl) = c1ccc2c(N*)cccc2c1; Hyp = O=C(O)[C@@H]1C[C@@H](O)CN1; X44 = FC(F)(F)c1ccc(NC(=S)*)cc1; X43 = S=C(Nc1ccccc1Oc1ccccc1)*; NMeNle = CCCC[C@H](NC)C(=O)O; NMeA = CN[C@@H](C)C(=O)O; Dab = NCC[C@H](N)C(=O)O; Dap = NC[C@H](N)C(=O)O; CO = O=C([*:1])[*:2]
# Molecular target: T1, PD-1/PD-L1 (Homo sapiens, UniProt Q9NZQ7)
# T1 construct: TVMV protease site linker (C); made in house; host or cells: HEK293T cells
# T1 sequence (Q9NZQ7 18-239): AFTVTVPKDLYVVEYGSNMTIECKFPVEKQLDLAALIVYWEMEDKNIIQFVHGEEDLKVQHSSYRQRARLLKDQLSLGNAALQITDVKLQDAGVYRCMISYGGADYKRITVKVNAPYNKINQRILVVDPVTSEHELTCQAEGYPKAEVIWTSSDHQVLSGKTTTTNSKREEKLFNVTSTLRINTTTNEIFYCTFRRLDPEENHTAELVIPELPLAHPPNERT
# Test: PD-1/PD-L1 Homogenous Time-Resolved Fluorescence (HTRF) binding assay
# Summary of the method: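 Compounds preincubated 15 min with PD-L1-His (10 nM final), then PD-1-Ig (20 nM final) added for 15 min in dPBS with 0.1% BSA, 0.05% Tween-20. Detection by Eu-cryptate anti-Ig (1 nM) and APC anti-His (20 nM) HTRF.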
# [1] = PD-L1-His 10 nM pre-incubated with inhibitor, PD-1-Ig 20 nM, read-out: HTRF IC50
SMILES,IC50 [1] [nM],IC50 [nM]
CCCC[C@H]1C(=O)N(C)[C@@H](CCCC)C(=O)N[C@@H](CC(C)C)C(=O)N[C@H](C(=O)NCC(N)=O)CSCC(=O)N[C@@H](Cc2ccc(O)cc2)C(=O)N(C)[C@@H](C)C(=O)N[C@@H](CC(N)=O)C(=O)N2CCC[C@H]2C(=O)N[C@@H](CNC(=S)Nc2ccc(C(F)(F)F)cc2)C(=O)N[C@@H](CC(C)C)C(=O)N2C[C@H](O)C[C@H]2C(=O)N[C@@H](Cc2c[nH]c3ccccc23)C(=O)N[C@@H](CCN)C(=O)N[C@@H](Cc2cn(CC(=O)O)c3ccccc23)C(=O)N1C [Example 1034] ({CH2CO}-Y[NMeA]NP[Dap](X44)L[Hyp]W[Dab][Trp(1-CH2COOH)][NMeNle][NMeNle]LCG-NH2; thioether N-14),3.5,
CCCC[C@H]1C(=O)N(C)[C@@H](CCCC)C(=O)N[C@@H](CC(C)C)C(=O)N[C@H](C(=O)NCC(N)=O)CSCC(=O)N[C@@H](Cc2ccc(O)cc2)C(=O)N(C)[C@@H](C)C(=O)N[C@@H](CC(N)=O)C(=O)N2CCC[C@H]2C(=O)N[C@@H](CNC(=S)Nc2ccccc2Oc2ccccc2)C(=O)N[C@@H](CC(C)C)C(=O)N2C[C@H](O)C[C@H]2C(=O)N[C@@H](Cc2c[nH]c3ccccc23)C(=O)N[C@@H](CCNC(=S)Nc2ccccc2Oc2ccccc2)C(=O)N[C@@H](Cc2cn(CC(=O)O)c3ccccc23)C(=O)N1C [Example 1129] ({CH2CO}-Y[NMeA]NP[Dap](X43)L[Hyp]W[Dab](X43)[Trp(1-CH2COOH)][NMeNle][NMeNle]LCG-NH2; thioether N-14),9.4,
CCCC[C@H]1C(=O)N(C)[C@@H](CCCC)C(=O)N[C@@H](CC(C)C)C(=O)N[C@H](C(=O)NCC(N)=O)CSCC(=O)N[C@@H](Cc2ccc(O)cc2)C(=O)N(C)[C@@H](C)C(=O)N[C@@H](CC(N)=O)C(=O)N2CCC[C@H]2C(=O)N[C@@H](CNC(=O)Nc2cccc3ccccc23)C(=O)N[C@@H](CC(C)C)C(=O)N2C[C@H](O)C[C@H]2C(=O)N[C@@H](Cc2c[nH]c3ccccc23)C(=O)N[C@@H](CCN)C(=O)N[C@@H](Cc2cn(CC(=O)O)c3ccccc23)C(=O)N1C [Example 3040] ({CH2CO}-Y[NMeA]NP[Dap]([CO-NH(1-naphthyl)])L[Hyp]W[Dab][Trp(1-CH2COOH)][NMeNle][NMeNle]LCG-NH2; thioether N-14),,0.8

# Further molecules by falling IC50 [1], results first:
IC50 [1] [nM],SMILES,IC50 [nM]
3.9,CCCC[C@H]1C(=O)N(C)[C@@H](CCCC)C(=O)N[C@@H](CC(C)C)C(=O)N[C@H](C(=O)NCC(N)=O)CSCC(=O)N[C@@H](Cc2ccc(O)cc2)C(=O)N(C)[C@@H](C)C(=O)N[C@@H](CC(N)=O)C(=O)N2CCC[C@H]2C(=O)N[C@@H](CN)C(=O)N[C@@H](CC(C)C)C(=O)N2C[C@H](O)C[C@H]2C(=O)N[C@@H](Cc2c[nH]c3ccccc23)C(=O)N[C@@H](CCNC(=S)Nc2cccc3c(C(N)=O)c[nH]c23)C(=O)N[C@@H](Cc2cn(CC(=O)O)c3ccccc23)C(=O)N1C [Example 3027] ({CH2CO}-Y[NMeA]NP[Dap]L[Hyp]W[Dab](X8)[Trp(1-CH2COOH)][NMeNle][NMeNle]LCG-NH2; thioether N-14),
1.6,CCCC[C@H]1C(=O)N(C)[C@@H](CCCC)C(=O)N[C@@H](CC(C)C)C(=O)N[C@H](C(=O)NCC(N)=O)CSCC(=O)N[C@@H](Cc2ccc(O)cc2)C(=O)N(C)[C@@H](C)C(=O)N[C@@H](CC(N)=O)C(=O)N2CCC[C@H]2C(=O)N[C@@H](CNC(=S)Nc2cccc3c(C(N)=O)c[nH]c23)C(=O)N[C@@H](CC(C)C)C(=O)N2C[C@H](O)C[C@H]2C(=O)N[C@@H](Cc2c[nH]c3ccccc23)C(=O)N[C@@H](CCNC(=S)Nc2cccc3c(C(N)=O)c[nH]c23)C(=O)N[C@@H](Cc2cn(CC(=O)O)c3ccccc23)C(=O)N1C [Example 3023] ({CH2CO}-Y[NMeA]NP[Dap](X8)L[Hyp]W[Dab](X8)[Trp(1-CH2COOH)][NMeNle][NMeNle]LCG-NH2; thioether N-14),
